The values below come from patent publication US9248163B2, “Insulin-like growth factor binding protein 7 for treatment of cancer” (University of Massachusetts, priority 2007, dated 2016).

The subject of assay [1] is IGFBP7 expression in melanoma cell lines. The assay is described as follows: IGFBP7 mRNA (qRT-PCR) in melanoma cell lines after 5-aza treatment. It is filed as cell-based, human. Conditions: 10 μM, 48 hours. On the procedure:
Total RNA was isolated using TRIZOLTM (Invitrogen) 7 days after retroviral transduction and puromycin selection. Reverse transcription was performed using SuperScriptTM II Reverse Transcriptase (Invitrogen) as per the manufacturer's instructions, followed by quantitative real-time PCR using Platinum SYBRTM Green qPCR SuperMix-UDG with Rox (Invitrogen). Bisulfite modification was carried out essentially as described (Frommer et al., 1992, Proc. Natl. Acad. Sci. USA, 89:1827-31), except that hydroquinone was used at a concentration of 125 mM during bisulfite treatment (carried out in the dark) and DNA was desalted on […] columns (Qiagen) after the bisulfite reaction. Six clones were sequenced for each cell line or human tissue sample. For 5-aza-2'-deoxycytidine (5-aza) treatment, melanoma cell lines were treated with 10 μM 5-aza (Calbiochem) for 48 hours.

The next assay has as its system SK-MEL-28 cells. Kind of assay: Immunoblot analysis of SMARCB1, BNIP3L and activated caspase 3. It is filed as cell-based, human. Conditions: 24 hours, unlike rIGFBP7. On the procedure: (§1) To prepare cell extracts, cells were lysed in Laemmli buffer; for phospho-proteins, cells were lysed in the presence of a phosphatase inhibitor cocktail (Sigma). To prepare conditioned media, cells were grown in Opti-MEM™ (Invitrogen) for 24 hours, and media was harvested and concentrated using Centricon™ plus 20 tubes (Millipore). Conditioned media was normalized to cell number prior to loading the gel. For the experiments shown in FIGS. 3D and 4C, rIGFBP7 was added to the culture medium at a concentration of 10 μg/ml. For the MEK/RAF inhibitor experiment of FIG. 4D, SK-MEL-28 cells were treated with 2 μg/ml or 10 μg/ml rIGFBP7, 20 μM or 40 μM of the MEK inhibitor PD98054 (Calbiochem), or 5 nM or 10 nM the RAF inhibitor GW5074 (Sigma) for 24 hours prior to harvesting cells. Proteins were resolved by SDS-PAGE and transferred to nitrocellulose. Blots were probed with the following antibodies: α-p16 (Abcam), α-acetylated H3K9 (Upstate), α-IGFBP7 (Santa Cruz), α-SMARCB1 (Abnova), α-BNIP3L (Proscience), α-BRAFV600E (Santa Cruz), α-cleaved caspase-3 p11 (Santa Cruz), α-β-actin (Sigma), α-phospho-ERK (Cell Signaling) or α-ERK (Cell Signaling).
For orientation: Immunoblotting shows a protein as a band on a membrane.

Assay [2] has as its system BRAF-MEK-ERK signaling in SK-MEL-28 cells. The assay is described as follows: Immunoblot analysis of BRAF-MEK-ERK signaling (phospho-ERK, activated MEK1/2, RKIP). It is filed as cell-based, human. Conditions: SK-MEL-28 cells, 24 hours; PD98054 20 or 40 μM, GW5074 5 or 10 nM. How it is done: as §1
To test this idea, rIGFBP7 was added to BRAFV600E-positive SK-MEL-28 melanoma cells, and the levels of total and activated ERK (phospho-ERK) were analyzed.

The test system of assay [3] is NCI 60 panel of human cancer cell lines. The assay is described as follows: Growth inhibition of the NCI 60 panel cell lines by MEK inhibitor. It is filed as cell-based. On the procedure: The growth dependence of the above cell lines on the Ras-BRAF-MEK-Erk signaling pathway was also determined. 1.5×10^5 cells of each cell line were treated with 20 μM of the MEK inhibitor U0216 (Cell Signaling) for 24 hours, and growth of the cell lines was determined. U0216 inhibited growth in 11/11 (100%) of the cell lines that contained a BRAF mutation and 11/13 (84.6) of the cell lines that contained a RAS mutation. The one cell line that contained both a BRAF and a RAS mutation was susceptible to growth inhibition by U0216.

Each structure is given as a SMILES string.

Turning to `Nc1ncn([C@H]2C[C@H](O)[C@@H](CO)O2)c(=O)n1` [5-aza-2′-deoxycytidine], the IGFBP7 expression result in assay [1] (BRAF/RAS-wild type cell lines) is recorded as “no effect”; in assay [1] (BRAFV600E- and NRASQ61R-positive cell lines) it was “restored IGFBP7 expression”.

In the case of `O=C1Nc2ccc(I)cc2/C1=C/c1cc(Br)c(O)c(Br)c1` [RAF inhibitor, reference compound], the “BNIP3L levels and induction of apoptosis” value with SK-MEL-28 cells is “did not increase BINP3L levels or efficiently induce apoptosis”. In assay [2], the BRAF-MEK-ERK signaling entry is reported as “blocked BRAF-MEK-ERK signaling”.

For `N#CC(=C(/N)Sc1ccccc1N)/C(C#N)=C(/N)Sc1ccccc1N` [U0216], the “cell lines in which growth was inhibited” value was 100% in assay [3] (cell lines that contained a BRAF mutation (11/11), 20 μM, 24 hours) and 84.6 in assay [3] (cell lines that contained a RAS mutation (11/13), 20 μM, 24 hours). Moreover, the “cell lines susceptible to growth inhibition” value in assay [3] (cell lines without a BRAF or RAS mutation, 20 μM, 24 hours) is 0/34. For the same compound, the “susceptibility to growth inhibition” value in assay [3] (one cell line with both a BRAF and a RAS mutation) is “susceptible”.
